Data on one molecule can be found in PMC4581192, “Fenarimol, a Pyrimidine-Type Fungicide, Inhibits Brassinosteroid Biosynthesis” (International Journal of Molecular Sciences, 2015).

This test has as its target T1, CYP90D1 (Arabidopsis thaliana, UniProt Q94IA6).
T1 construct: DNA fragment encoding CYP90D1 mature protein; expressed from pCold-GST in E. coli, fusion protein cleaved with HRV3C protease
T1 sequence (Q94IA6 1-491): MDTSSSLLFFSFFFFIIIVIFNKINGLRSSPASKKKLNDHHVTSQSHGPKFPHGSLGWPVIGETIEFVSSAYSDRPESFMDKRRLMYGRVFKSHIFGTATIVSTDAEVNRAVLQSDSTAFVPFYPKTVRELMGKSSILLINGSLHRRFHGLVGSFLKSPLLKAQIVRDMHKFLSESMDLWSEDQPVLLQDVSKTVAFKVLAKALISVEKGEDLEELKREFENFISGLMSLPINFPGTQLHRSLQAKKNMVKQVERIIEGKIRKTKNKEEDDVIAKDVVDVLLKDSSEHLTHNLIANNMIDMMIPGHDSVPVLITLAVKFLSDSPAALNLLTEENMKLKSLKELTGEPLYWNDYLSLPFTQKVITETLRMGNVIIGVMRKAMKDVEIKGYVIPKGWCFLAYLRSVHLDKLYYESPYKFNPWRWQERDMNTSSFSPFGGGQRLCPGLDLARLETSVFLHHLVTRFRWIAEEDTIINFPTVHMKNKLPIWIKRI
Briefly: optical difference spectroscopy (type II spectral titration) of purified recombinant CYP90D1. Format: binding.

Regarding `OC(c1ccc(Cl)cc1)(c1cncnc1)c1ccccc1Cl` (stereo not shown) [FM, fenarimol], the Kd came out at 790 nM.

The Kd is a measure of binding affinity in units of concentration.
